Results published in US7396837B2, “Antitumoral analogs of lamellarins” (Pharma Mar, S.A.U., priority 2002, dated 2008).
Read-outs that look alike come from different tables or passages of the source.

Assays:
Type in all cases: cell-based
LoVo-Dox = assay: SRB colorimetric cell growth inhibition assay, LoVo-Dox (MDR); details: Homo sapiens, LOVO-DOX; for GI50: GI=growth inhibition, read-out: GI50 LOVO-DOX; for CC50: cell killing (cytotoxic effect), read-out: LC50 LOVO-DOX; for IC (TGI): total growth inhibition (cytostatic effect), read-out: TGI LOVO-DOX
Method in brief: (§1)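 Triplicate-well SRB colorimetry following continuous sample exposure of human tumour cells; reported parameters are GI, TGI for cytostatic effect, and LC for cytotoxic effect.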

HT-29 = assay: SRB colorimetric cell growth inhibition assay, HT-29; details: for GI50: GI=growth inhibition, read-out: GI50 HT-29; for CC50: cell killing (cytotoxic effect), read-out: LC50 HT-29
Method in brief: as §1

K-562 = assay: SRB colorimetric cell growth inhibition assay, K-562; details: Homo sapiens, K562, K-562; for GI50: GI=growth inhibition, read-out: GI50 K-562; for CC50: cell killing (cytotoxic effect), read-out: LC50 K-562; for IC (TGI): total growth inhibition (cytostatic effect), read-out: TGI K-562
Method in brief: as §1

PANC-1 = assay: SRB colorimetric cell growth inhibition assay, PANC-1; details: for CC50: cell killing (cytotoxic effect), read-out: LC50 PANC-1; for GI50: GI=growth inhibition, read-out: GI50 PANC-1
Method in brief: as §1

SK-BR-3 = assay: SRB colorimetric cell growth inhibition assay, SK-BR-3; details: for CC50: cell killing (cytotoxic effect), read-out: LC50 SK-BR-3; for GI50: GI=growth inhibition, read-out: GI50 SK-BR-3
Method in brief: as §1

DU-145 = assay: SRB colorimetric cell growth inhibition assay, DU-145; details: for CC50: cell killing (cytotoxic effect), read-out: LC50 DU-145; for GI50: GI=growth inhibition, read-out: GI50 DU-145; for IC (TGI): total growth inhibition (cytostatic effect), read-out: TGI DU-145
Method in brief: as §1

IGROV = assay: SRB colorimetric cell growth inhibition assay, IGROV; details: Homo sapiens, IGROV; for GI50: GI=growth inhibition, read-out: GI50 IGROV; for CC50: cell killing (cytotoxic effect), read-out: LC50 IGROV; for IC (TGI): total growth inhibition (cytostatic effect), read-out: TGI IGROV
Method in brief: as §1

IGROV-ET = assay: SRB colorimetric cell growth inhibition assay, IGROV-ET (ET-743 resistant); details: Homo sapiens, IGROV-ET; for GI50: GI=growth inhibition, read-out: GI50 IGROV-ET; for CC50: cell killing (cytotoxic effect), read-out: LC50 IGROV-ET; for IC (TGI): total growth inhibition (cytostatic effect), read-out: TGI IGROV-ET
Method in brief: as §1

SK-MEL-28 = assay: SRB colorimetric cell growth inhibition assay, SK-MEL-28; details: for GI50: GI=growth inhibition, read-out: GI50 MEL-28; for CC50: cell killing (cytotoxic effect), read-out: LC50 MEL-28
Method in brief: as §1

LNCaP = assay: SRB colorimetric cell growth inhibition assay, LNCaP; details: Homo sapiens, LNCaP, LN-caP; for GI50: GI=growth inhibition, read-out: GI50 LN-caP; for CC50: cell killing (cytotoxic effect), read-out: LC50 LN-caP; for IC (TGI): total growth inhibition (cytostatic effect), read-out: TGI LN-caP
Method in brief: as §1

SKOV-3 = assay: SRB colorimetric cell growth inhibition assay, SKOV-3; details: Homo sapiens; for GI50: SK-OV-3, SKOV-3, GI=growth inhibition, read-out: GI50 SKOV-3; for LC50 (concentration causing 50% net cell killing) / IC (TGI): SK-OV-3, SKOV-3; for LC50 (concentration causing 50% net cell killing): cell killing (cytotoxic effect), read-out: LC50 SKOV-3; for IC (TGI): total growth inhibition (cytostatic effect), read-out: TGI SKOV-3
From the text: (§2) A colorimetric type of assay, using sulforhodamine B (SRB) reaction has been adapted for a quantitative measurement of cell growth and viability (following the technique described by P. A. Skehan, et al., J. Natl. Cancer Inst. 1990, 82, 1107-1112).
(§3) This form of assay employs 96 well cell culture microplates of 9 mm diameter (T. Mosmann et al., J. of Immunological Methods 1983, 65, 55-63; G. T. Faircloth et al., J. of Tissue and Culture Methods 1988, 11, 201-205).
(§4) Most of the cell lines are obtained from American Type Culture Collection (ATCC) derived from different human cancer types.
(§5) The values for mean +/− SD of data from triplicate wells are calculated. Some parameters for cellular responses can be calculated: GI=growth inhibition, TGI=total growth inhibition (cytostatic effect) and LC=cell killing (cytotoxic effect).

LoVo = assay: SRB colorimetric cell growth inhibition assay, LoVo; details: for GI50: GI=growth inhibition, read-out: GI50 LOVO; for IC (TGI): total growth inhibition (cytostatic effect), read-out: TGI LOVO; for CC50: cell killing (cytotoxic effect), read-out: LC50 LOVO
Method in brief: as §1

H-MEC-1 = assay: SRB colorimetric cell growth inhibition assay, H-MEC-1; details: Homo sapiens, HMEC-1, H-MEC-1; for GI50: GI=growth inhibition, read-out: GI50 H-MEC-1; for IC (TGI): total growth inhibition (cytostatic effect), read-out: TGI H-MEC-1
From the text: as §2, §3, §4, §5

[1] = as above; details: human, H-MEC-1 cells; H-MEC-1; cell killing (cytotoxic effect); read-out: LC50 H-MEC-1
From the text: as §2, §3, §4, §5

A-549 = assay: SRB colorimetric cell growth inhibition assay, A-549; details: for CC50: cell killing (cytotoxic effect), read-out: LC50 A-549; for GI50: GI=growth inhibition, read-out: GI50 A-549
Method in brief: as §1

[2] = Homo sapiens, SK-MEL-28, MEL-28

## COc1cc2ccn3c(c(-c4ccc(OC(=O)[C@@H](N)C(C)C)c(OC)c4)c4c5cc(OC)c(OC(=O)[C@@H](N)C(C)C)cc5oc(=O)c43)c2cc1OC [Compound 19]
LoVo-Dox
  GI50: 0.874 µM
  CC50: 8.03 µM
  IC (TGI): 2.72 µM
HT-29; HT-29
  GI50: 0.109 µM
HT-29; HT-29, total growth inhibition (cytostatic effect)
  TGI HT-29: 2.10E−06 Molar
HT-29; Homo sapiens, HT-29, HT-29
  CC50: 7.29 µM
K-562
  GI50: 1.84 µM
  CC50: 11.6 µM
  IC (TGI): 4.62 µM
PANC-1; Homo sapiens, PANC-1, PANC-1
  CC50: 9.5 µM
PANC-1; PANC-1
  GI50: 0.245 µM
PANC-1; PANC-1, total growth inhibition (cytostatic effect)
  TGI PANC-1: 2.42E−06 Molar
SK-BR-3; Homo sapiens, SK-BR-3, SK-BR-3
  CC50: 14 µM
SK-BR-3; SK-BR-3
  GI50: 0.165 µM
SK-BR-3; SK-BR-3, total growth inhibition (cytostatic effect)
  TGI SK-BR-3: 2.28E−06 Molar
DU-145; DU-145
  CC50: 6.85 µM
DU-145; Homo sapiens, DU-145, DU-145
  GI50: 0.532 µM
  IC (TGI): 2.16 µM
IGROV
  GI50: 0.406 µM
  CC50: 9.34 µM
  IC (TGI): 2.51 µM
IGROV-ET
  GI50: 0.761 µM
  CC50: 11.3 µM
  IC (TGI): 2.54 µM
SK-MEL-28; MEL-28
  GI50: 0.273 µM
  CC50: 4.99 µM
SK-MEL-28; MEL-28, total growth inhibition (cytostatic effect)
  TGI MEL-28: 1.53E−06 Molar
LNCaP
  GI50: 0.0941 µM
  CC50: 5.37 µM
  IC (TGI): 1.41 µM
SKOV-3
  GI50: 0.758 µM
  LC50 (concentration causing 50% net cell killing): 6.57 µM
  IC (TGI): 2.31 µM
LoVo; Homo sapiens, LoVo
  GI50: 0.722 µM
  IC (TGI): 2.33 µM
LoVo; LOVO
  CC50: 6.6 µM
H-MEC-1
  GI50: 0.807 µM
  IC (TGI): 2.42 µM
[1]
  LC50 (concentration giving 50% net cell killing): 7.16 µM
A-549; A-549
  CC50: 6.32 µM
A-549; A-549, total growth inhibition (cytostatic effect)
  TGI A-549: 2.13E−06 Molar
A-549; Homo sapiens, A549, A-549
  GI50: 0.605 µM

## COc1cc2c(cc1OC)-c1c(-c3ccc(OC(=O)[C@H](C)NC(=O)OC(C)(C)C)c(OC)c3)c3c4cc(OC)c(OC(=O)[C@H](C)NC(=O)OC(C)(C)C)cc4oc(=O)c3n1CC2 [Compound 21]
LoVo-Dox
  GI50: 4.97 µM
  CC50: 11.7 µM
  IC (TGI): 11.7 µM
HT-29; Homo sapiens, HT-29, HT-29
  GI50: 0.512 µM
  CC50: 11.7 µM
HT-29; Homo sapiens, HT-29, HT-29, total growth inhibition (cytostatic effect), read-out: TGI HT-29
  IC (TGI): 11.7 µM
K-562
  GI50: 0.286 µM
  CC50: 2.39 µM
  IC (TGI): 0.582 µM
PANC-1; Homo sapiens, PANC-1, PANC-1
  GI50: 0.514 µM
  CC50: 11.7 µM
PANC-1; Homo sapiens, PANC-1, PANC-1, total growth inhibition (cytostatic effect), read-out: TGI PANC-1
  IC (TGI): 1.81 µM
SK-BR-3; Homo sapiens, SK-BR-3, SK-BR-3
  GI50: 0.342 µM
  CC50: 11.7 µM
SK-BR-3; Homo sapiens, SK-BR-3, SK-BR-3, total growth inhibition (cytostatic effect), read-out: TGI SK-BR-3
  IC (TGI): 0.599 µM
DU-145; Homo sapiens, DU-145, DU-145
  GI50: 0.353 µM
  CC50: 11.7 µM
  IC (TGI): 0.703 µM
IGROV
  GI50: 0.315 µM
  CC50: 9.02 µM
  IC (TGI): 0.664 µM
IGROV-ET
  GI50: 0.901 µM
  CC50: 11.7 µM
  IC (TGI): 5.18 µM
SK-MEL-28; [2]
  GI50: 0.287 µM
  CC50: 0.86 µM
SK-MEL-28; Homo sapiens, SK-MEL-28, MEL-28, total growth inhibition (cytostatic effect), read-out: TGI MEL-28
  IC (TGI): 0.497 µM
LNCaP
  GI50: 0.19 µM
  CC50: 0.775 µM
  IC (TGI): 0.383 µM
SKOV-3
  GI50: 0.849 µM
  LC50 (concentration causing 50% net cell killing): 11.7 µM
  IC (TGI): 11.7 µM
LoVo; Homo sapiens, LoVo
  GI50: 1.95 µM
  CC50: 11.7 µM
  IC (TGI): 4.97 µM
H-MEC-1
  GI50: 0.281 µM
  IC (TGI): 0.509 µM
[1]
  LC50 (concentration giving 50% net cell killing): 0.922 µM
A-549; Homo sapiens, A549, A-549
  GI50: 1.39 µM
  CC50: 11.7 µM
A-549; Homo sapiens, A549, A-549, total growth inhibition (cytostatic effect), read-out: TGI A-549
  IC (TGI): 4.62 µM
